Measurements as given in PubChem BioAssay (NCI).
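Values below derive from 48-hour exposures of cells grown in 96-well plates, with endpoints linearly interpolated between the two concentrations bracketing the appropriate inhibition level. GI50 = concentration required for 50% inhibition of growth. TGI: concentration producing complete growth inhibition.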

Tests used:
Test in all cases: DTP human tumour cell line panel, 48 h
[1] = tested on: TK-10 renal
[2] = tested on: A549 NSCLC
[3] = tested on: OVCAR-3 ovarian
[4] = tested on: 786-0 renal
[5] = tested on: K-562 leukemia
[6] = tested on: BT-549 breast
[7] = tested on: SNB-19 CNS
[8] = tested on: SF-539 CNS
[9] = tested on: SW-620 colon
[10] = tested on: NCI-H23 lung
[11] = tested on: HT29 colon
[12] = tested on: T-47D breast
[13] = tested on: MDA-MB-231 breast
[14] = tested on: NCI/ADR-RES ovarian
[15] = tested on: UACC-62 melanoma
[16] = tested on: SF-268 CNS
[17] = tested on: HOP-92 NSCLC
[18] = tested on: OVCAR-5 ovarian
[19] = tested on: CAKI-1 renal
[20] = tested on: RPMI-8226 leukemia
[21] = tested on: PC-3 prostate
[22] = tested on: SK-MEL-5 melanoma
[23] = tested on: UO-31 renal
[24] = tested on: MOLT-4 leukemia
[25] = tested on: MALME-3M melanoma
[26] = tested on: MCF7 breast
[27] = tested on: LOX IMVI melanoma
[28] = tested on: UACC-257 melanoma
[29] = tested on: MDA-MB-435
[30] = tested on: NCI-H460 lung
[31] = tested on: SK-OV-3 ovarian
[32] = tested on: COLO 205 colon
[33] = tested on: HOP-62 NSCLC
[34] = tested on: SK-MEL-28 melanoma
[35] = tested on: SF-295 CNS
[36] = tested on: IGROV1 ovarian
[37] = tested on: HCC-2998 colon
[38] = tested on: NCI-H522 lung
[39] = tested on: KM12 colon
[40] = tested on: HCT-15 colon
[41] = tested on: HCT-116 colon
[42] = tested on: NCI-H226 lung
[43] = tested on: HS 578T breast
[44] = tested on: U251 CNS
[45] = tested on: ACHN renal
[46] = tested on: RXF 393 renal
[47] = tested on: CCRF-CEM leukemia
[48] = tested on: OVCAR-4 ovarian
[49] = tested on: OVCAR-8 ovarian
[50] = tested on: SN12C renal
[51] = tested on: SK-MEL-2 melanoma
[52] = tested on: DU-145 prostate
[53] = tested on: EKVX NSCLC

## O=C(CN(/C=C/C(=O)C(F)(F)F)c1ccccc1)c1ccc(F)cc1
[1]
  GI50: 33 µM
  TGI: > 100 µM
[2]
  GI50: 35.4 µM
  TGI: > 100 µM
[3]
  GI50: 25.8 µM
  TGI: 68.7 µM
[4]
  GI50: 41.1 µM
  TGI: > 100 µM
[5]
  GI50: 18.1 µM
  TGI: 52.6 µM
[6]
  GI50: 31.5 µM
  TGI: > 100 µM
[7]
  GI50: 46 µM
  TGI: > 100 µM
[8]
  GI50: 28.7 µM
  TGI: 63.8 µM
[9]
  GI50: 19.9 µM
  TGI: 42.9 µM
[10]
  GI50: 29.5 µM
  TGI: > 100 µM
[11]
  GI50: 38.9 µM
  TGI: > 100 µM
[12]
  GI50: 35.3 µM
  TGI: > 100 µM
[13]
  GI50: 17.7 µM
  TGI: 42.1 µM
[14]
  GI50: 23.6 µM
  TGI: 66 µM
[15]
  GI50: 13 µM
  TGI: 26.9 µM
[16]
  GI50: 23.1 µM
  TGI: 64.5 µM
[17]
  GI50: 24.8 µM
  TGI: 90.4 µM
[18]
  GI50: 25.6 µM
  TGI: 88.7 µM
[19]
  GI50: 19.8 µM
  TGI: 48.9 µM
[20]
  GI50: 19.3 µM
  TGI: 54 µM
[21]
  GI50: 29 µM
  TGI: > 100 µM
[22]
  GI50: 1.34 µM
  TGI: 12.3 µM
[23]
  GI50: 33.8 µM
  TGI: > 100 µM
[24]
  GI50: 23.6 µM
  TGI: 79.8 µM
[25]
  GI50: 26.7 µM
  TGI: 74.1 µM
[26]
  GI50: 23.2 µM
  TGI: 59.3 µM
[27]
  GI50: 15.5 µM
  TGI: 37.6 µM
[28]
  GI50: 19.1 µM
  TGI: 93.2 µM
[29]
  GI50: 27.1 µM
  TGI: 72.1 µM
[30]
  GI50: 22.6 µM
  TGI: 59.3 µM
[31]
  GI50: 55 µM
  TGI: > 100 µM
[32]
  GI50: 25 µM
  TGI: 58.3 µM
[33]
  GI50: 75.1 µM
  TGI: > 100 µM
[34]
  GI50: 54.8 µM
  TGI: > 100 µM
[35]
  GI50: 20.8 µM
  TGI: 69.6 µM
[36]
  GI50: 21.9 µM
  TGI: 79.2 µM
[37]
  GI50: 17.8 µM
  TGI: 41.6 µM
[38]
  GI50: 19.2 µM
  TGI: 46.5 µM
[39]
  GI50: 24.9 µM
  TGI: 69.9 µM
[40]
  GI50: 25.4 µM
  TGI: > 100 µM
[41]
  GI50: 25.3 µM
  TGI: 88.1 µM
[42]
  GI50: 19.6 µM
  TGI: 47.8 µM
[43]
  GI50: 2.57 µM
  TGI: 8.33 µM
[44]
  GI50: 22.9 µM
  TGI: 69.8 µM
[45]
  GI50: 22.3 µM
  TGI: 69.4 µM
[46]
  GI50: 39.8 µM
  TGI: > 100 µM
[47]
  GI50: 15.8 µM
  TGI: 41.4 µM
[48]
  GI50: 42.5 µM
  TGI: > 100 µM
[49]
  GI50: 47.4 µM
  TGI: > 100 µM
[50]
  GI50: 21.2 µM
  TGI: 54.9 µM
[51]
  GI50: 26.3 µM
  TGI: 70.1 µM
[52]
  GI50: 50 µM
  TGI: > 100 µM
[53]
  GI50: 49.9 µM
  TGI: > 100 µM
